The NIST ThermoML archive (doi:10.1016/j.jct.2008.01.022)
± gives the expanded uncertainty stated by the source.

Conditions: 101.33 kPa, Liquid; for viscosity: Capillary tube (Ostwald / Ubbelohde) method

Row | mass density (293.15 K) [kg/m3] | viscosity (293.15 K) [mPa·s] | mass density (303.15 K) [kg/m3] | viscosity (303.15 K) [mPa·s] | mass density (313.15 K) [kg/m3] | viscosity (313.15 K) [mPa·s] | mass density (323.15 K) [kg/m3] | viscosity (323.15 K) [mPa·s] | mass density (293.15 K, Vibrating tube method) [kg/m3] | mass density (303.15 K, Vibrating tube method) [kg/m3] | mass density (313.15 K, Vibrating tube method) [kg/m3] | mass density (323.15 K, Vibrating tube method) [kg/m3] | Structure (SMILES)
1 | 951.86 ± 2.3 | 83.41 ± 1.6 | 944.66 ± 2.3 | 42.25 ± 0.67 | 937.34 ± 2.3 | 24.12 ± 0.39 | 929.9 ± 2.3 | 14.79 ± 0.24 | – | – | – | – | CCCCC(O)CO (configuration not stated) [1,2-hexanediol]
2 | 1002.43 ± 0.54 | 71.87 ± 0.69 | 994.98 ± 0.54 | 37.86 ± 0.28 | 987.39 ± 0.55 | 21.49 ± 0.16 | 979.64 ± 0.56 | 13.12 ± 0.1 | – | – | – | – | CCC(O)CO (configuration not stated) [1,2-butanediol]
3 | 1036.3 ± 0.6 | 56.21 ± 0.32 | 1028.92 ± 0.58 | 32.63 ± 0.24 | 1021.39 ± 0.57 | 19.58 ± 0.15 | 1013.7 ± 0.56 | 12.79 ± 0.1 | – | – | – | – | CC(O)CO (configuration not stated) [1,2-propanediol]
4 | – | 76.96 ± 2.1 | – | 39.16 ± 1 | – | 22.52 ± 0.58 | – | 13.66 ± 0.35 | 970.35 ± 5.1 | 963.07 ± 5 | 955.65 ± 5 | 948.12 ± 4.9 | CCCC(O)CO (configuration not stated) [1,2-pentanediol]
